Biological target: T1, Full-length, GST-tagged, human CaMKIIδ (Homo sapiens, UniProt Q13557)
T1 construct: Full-Length, Glutathione-S-Transferase(GST)-Tagged, Human CaMKIIδ was purchased from Carna Biosciences; purchased Carna Biosciences 02-111
Assay: CaMKIIδ binding assay (TR-FRET with BODIPY-labeled probe ligand)
Conditions: Table 2; CaMKIIδ binding assay, activity given as class A/B/C
Procedure, shortened: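 Compounds were tested as 4-fold, eight-point series for 1 hr at room temperature, and IC50 was obtained by logistic fitting against a 3 μM parent-compound control. Signal came from displacement of a 300 nM BODIPY ligand from 0.5 nM GST-CaMKIIδ, detected via Tb-anti-GST in calmodulin/Ca2+ (pH 7.6).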

T1 sequence (Q13557 1-478 isoform Q13557-12): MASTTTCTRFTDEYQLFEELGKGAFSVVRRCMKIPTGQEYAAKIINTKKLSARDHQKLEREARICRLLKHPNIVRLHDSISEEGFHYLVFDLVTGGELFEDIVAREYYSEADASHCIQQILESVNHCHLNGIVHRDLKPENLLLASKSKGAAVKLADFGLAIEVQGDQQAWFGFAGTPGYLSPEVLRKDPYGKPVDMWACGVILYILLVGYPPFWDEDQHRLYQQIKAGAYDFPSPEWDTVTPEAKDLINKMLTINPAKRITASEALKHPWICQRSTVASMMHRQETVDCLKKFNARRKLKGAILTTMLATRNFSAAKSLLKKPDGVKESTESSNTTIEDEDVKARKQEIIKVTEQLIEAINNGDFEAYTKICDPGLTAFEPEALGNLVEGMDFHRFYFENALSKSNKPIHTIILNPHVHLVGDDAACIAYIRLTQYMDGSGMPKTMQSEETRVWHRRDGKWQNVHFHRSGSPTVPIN

| SMILES | IC50 [µM] |
| --- | --- |
| C[C@@H](Cn1cnnn1)Oc1cc(-c2cnc(Nc3cn(Cc4nc5ccccc5c(=O)[nH]4)nc3C(F)(F)F)nc2)ccc1Cl [Example 741, (S)-2-((4-((5-(3-((1-(1H-tetrazol-1-yl)propan-2-yl)oxy)-4-chlorophenyl)pyrimidin-2-yl)amino)-3-(trifluoromethyl)-1H-pyrazol-1-yl)methyl)quinazolin-4(3H)-one] | 0.01 to 0.1 |
| Cc1cc(Nc2ncc(-c3ccc(Cl)c(O[C@@H](C)Cn4cnnn4)c3)cn2)n(C(C)C)n1 [Example 742, (S)-5-(3-((1-(1H-tetrazol-1-yl)propan-2-yl)oxy)-4-chlorophenyl)-N-(1-isopropyl-3-methyl-1H-pyrazol-5-yl)pyrimidin-2-amine] | 0.01 to 0.1 |
| C[C@@H](Cn1cnnn1)Oc1cc(-c2cnc(Nc3cn(CC(F)F)nc3C(F)(F)F)nc2)ccc1Cl [Example 743, (S)-5-(3-((1-(1H-tetrazol-1-yl)propan-2-yl)oxy)-4-chlorophenyl)-N-(1-(2,2-difluoroethyl)-3-(trifluoromethyl)-1H-pyrazol-4-yl)pyrimidin-2-amine] | 0.01 to 0.1 |
| C[C@@H](Cn1cnnn1)Oc1cc(-c2cnc(Nc3cn(CC(O)(C(F)(F)F)C(F)(F)F)nc3C(F)(F)F)nc2)ccc1Cl [Example 744, (S)-2-((4-((5-(3-((1-(1H-tetrazol-1-yl)propan-2-yl)oxy)-4-chlorophenyl)pyrimidin-2-yl)amino)-3-(trifluoromethyl)-1H-pyrazol-1-yl)methyl)-1,1,1,3,3,3-hexafluoropropan-2-ol] | ≥ 0.1 |
| C[C@@H](Cn1cnnn1)Oc1cc(-c2cnc(Nc3nc4ccccc4n3C)nc2)ccc1Cl [Example 745, (S)-N-(5-(3-((1-(1H-tetrazol-1-yl)propan-2-yl)oxy)-4-chlorophenyl)pyrimidin-2-yl)-1-methyl-1H-benzo[d]imidazol-2-amine] | ≥ 0.1 |
| Cc1cc(Nc2ncc(-c3ccc(Cl)c(O[C@@H](C)Cn4cnnn4)c3)cn2)n(CCC#N)n1 [Example 746, (S)-3-(5-((5-(3-((1-(1H-tetrazol-1-yl)propan-2-yl)oxy)-4-chlorophenyl)pyrimidin-2-yl)amino)-3-methyl-1H-pyrazol-1-yl)propanenitrile] | ≥ 0.1 |
| Cc1noc(C)c1Nc1ncc(-c2ccc(Cl)c(O[C@@H](C)Cn3cnnn3)c2)cn1 [Example 747, (S)-N-(5-(3-((1-(1H-tetrazol-1-yl)propan-2-yl)oxy)-4-chlorophenyl)pyrimidin-2-yl)-3,5-dimethylisoxazol-4-amine] | 0.01 to 0.1 |
| C[C@@H](Cn1cnnn1)Oc1cc(-c2cnc(Nc3snnc3-c3ccc(Cl)cc3)nc2)ccc1Cl [Example 748, (S)-N-(5-(3-((1-(1H-tetrazol-1-yl)propan-2-yl)oxy)-4-chlorophenyl)pyrimidin-2-yl)-4-(4-chlorophenyl)-1,2,3-thiadiazol-5-amine] | ≥ 0.1 |
| C[C@@H](Cn1cnnn1)Oc1cc(-c2cnc(Nc3n[nH]cc3Cl)nc2)ccc1Cl [Example 749, (S)-5-(3-((1-(1H-tetrazol-1-yl)propan-2-yl)oxy)-4-chlorophenyl)-N-(4-chloro-1H-pyrazol-3-yl)pyrimidin-2-amine] | 0.01 to 0.1 |
| C[C@@H](Cn1cnnn1)Oc1cc(-c2cnc(Nc3ncc(CO)n3C)nc2)ccc1Cl [Example 750, (S)-(2-((5-(3-((1-(1H-tetrazol-1-yl)propan-2-yl)oxy)-4-chlorophenyl)pyrimidin-2-yl)amino)-1-methyl-1H-imidazol-5-yl)methanol] | ≥ 0.1 |
| Cc1cc(Nc2ncc(-c3ccc(Cl)c(O[C@@H](C)Cn4cnnn4)c3)cn2)n(C)n1 [Example 751, (S)-5-(3-((1-(1H-tetrazol-1-yl)propan-2-yl)oxy)-4-chlorophenyl)-N-(1,3-dimethyl-1H-pyrazol-5-yl)pyrimidin-2-amine] | 0.01 to 0.1 |
| C[C@@H](Cn1cnnn1)Oc1cc(-c2cnc(Nc3sc4c(c3C#N)CCCC4)nc2)ccc1Cl [Example 752, (S)-2-((5-(3-((1-(1H-tetrazol-1-yl)propan-2-yl)oxy)-4-chlorophenyl)pyrimidin-2-yl)amino)-4,5,6,7-tetrahydrobenzo[b]thiophene-3-carbonitrile] | 0.01 to 0.1 |
| C[C@@H](Cn1cnnn1)Oc1cc(-c2cnc(Nc3sc4c(c3C#N)CCC4)nc2)ccc1Cl [Example 753, (S)-2-((5-(3-((1-(1H-tetrazol-1-yl)propan-2-yl)oxy)-4-chlorophenyl)pyrimidin-2-yl)amino)-5,6-dihydro-4H-cyclopenta[b]thiophene-3-carbonitrile] | ≥ 0.1 |
| C[C@@H](Cn1cnnn1)Oc1cc(-c2cnc(Nc3ccnn3-c3ccccc3)nc2)ccc1Cl [Example 754, (S)-5-(3-((1-(1H-tetrazol-1-yl)propan-2-yl)oxy)-4-chlorophenyl)-N-(1-phenyl-1H-pyrazol-5-yl)pyrimidin-2-amine] | 0.01 to 0.1 |
| C[C@@H](Cn1cnnn1)Oc1cc(-c2cnc(Nc3ccn(C)n3)nc2)ccc1Cl [Example 755, (S)-5-(3-((1-(1H-tetrazol-1-yl)propan-2-yl)oxy)-4-chlorophenyl)-N-(1-methyl-1H-pyrazol-3-yl)pyrimidin-2-amine] | 0.01 to 0.1 |
| C[C@@H](Cn1cnnn1)Oc1cc(-c2cnc(Nc3cn(CC(F)(F)F)nc3OCC(F)(F)F)nc2)ccc1Cl [Example 756, (S)-5-(3-((1-(1H-tetrazol-1-yl)propan-2-yl)oxy)-4-chlorophenyl)-N-(3-(2,2,2-trifluoroethoxy)-1-(2,2,2-trifluoroethyl)-1H-pyrazol-4-yl)pyrimidin-2-amine] | 0.01 to 0.1 |
| C[C@@H](Cn1cnnn1)Oc1cc(-c2cnc(Nc3cn([C@@H]4C[C@H]5CC[C@@H](C4)N5C4CC4)nc3C(F)(F)F)nc2)ccc1Cl [Example 757, 5-(3-(((S)-1-(1H-tetrazol-1-yl)propan-2-yl)oxy)-4-chlorophenyl)-N-(1-((1R,3s,5S)-8-cyclopropyl-8-azabicyclo[3.2.1]octan-3-yl)-3-(trifluoromethyl)-1H-pyrazol-4-yl)pyrimidin-2-amine] | < 0.01 |
| C[C@@H](Cn1cnnn1)Oc1cc(-c2cnc(Nc3cn([C@@H]4C[C@H]5CC[C@@H](C4)N5C)nc3C(F)(F)F)nc2)ccc1Cl [Example 758, 5-(3-(((S)-1-(1H-tetrazol-1-yl)propan-2-yl)oxy)-4-chlorophenyl)-N-(1-((1R,3s,5S)-8-methyl-8-azabicyclo[3.2.1]octan-3-yl)-3-(trifluoromethyl)-1H-pyrazol-4-yl)pyrimidin-2-amine] | < 0.01 |
| C[C@@H](Cn1cnnn1)Oc1cc(-c2cnc(Nc3cn(C)nc3OCC(F)(F)F)nc2)ccc1Cl [Example 759, (S)-5-(3-((1-(1H-tetrazol-1-yl)propan-2-yl)oxy)-4-chlorophenyl)-N-(1-methyl-3-(2,2,2-trifluoroethoxy)-1H-pyrazol-4-yl)pyrimidin-2-amine] | < 0.01 |
| C[C@@H](Cn1cnnn1)Oc1cc(-c2cnc(Nc3cn(CC(F)F)nc3OCC(F)(F)F)nc2)ccc1Cl [Example 760, (S)-5-(3-((1-(1H-tetrazol-1-yl)propan-2-yl)oxy)-4-chlorophenyl)-N-(1-(2,2-difluoroethyl)-3-(2,2,2-trifluoroethoxy)-1H-pyrazol-4-yl)pyrimidin-2-amine] | < 0.01 |
| C[C@@H](Cn1cnnn1)Oc1cc(-c2cnc(Nc3cn([C@@H](C)C(=O)N4CCOCC4)nc3C(F)(F)F)nc2)ccc1Cl [Example 761, (S)-2-(4-((5-(3-(((S)-1-(1H-tetrazol-1-yl)propan-2-yl)oxy)-4-chlorophenyl)pyrimidin-2-yl)amino)-3-(trifluoromethyl)-1H-pyrazol-1-yl)-1-morpholinopropan-1-one] | 0.01 to 0.1 |
